Laboratory results: the NIST ThermoML archive (doi:10.1016/j.jct.2016.03.027)
Numbers after ± are expanded uncertainties.

Experiment: wn = mass fraction of the nth substance listed
Settings: 298.15 K, 100 kPa, Liquid, Vibrating tube method

mass density (w1 = 0.1): 1026.64 ± 1.2 kg/m3 | mass density (w1 = 0.2): 1056.71 ± 1.2 kg/m3 | mass density (w1 = 0.3): 1087.25 ± 1.2 kg/m3 | mass density (w1 = 0.4): 1118.6 ± 1.2 kg/m3
Structure (SMILES): O=C1OCCO1 [ethylene carbonate] + O
